From US10421751B2, “Dihydro-2H-benzo[b][1,4]oxazine sulfonamide and related compounds for use as agonists of RORγ and the treatment of disease” (Lycera Corporation, priority 2015, dated 2019)

Assays:
Gal4-RORγ-LBD = target: T1, Gal4-RORγ-LBD (Homo sapiens, UniProt P51449); test: Gal4-RORγ Luciferase Reporter Assay in HEK-293T Cells; assay type: cell-based; settings: for EC50: HEK-293 cells, in presence of 2 μM ursolic acid, overnight incubation, read-out: Ga14-RORγ Assay EC50; for Ga14-RORγ Assay Max Response: upper plateau of 4-parameter fit, luciferase signal in the absence of ursolic acid or test compound defined at 100
T1 construct: expressed in transfected cells; pcDNA3.1neo plasmid, co-transfected with pGL4.31 Gal4-luciferase reporter
T1 sequence (P51449 269-508 limits assumed): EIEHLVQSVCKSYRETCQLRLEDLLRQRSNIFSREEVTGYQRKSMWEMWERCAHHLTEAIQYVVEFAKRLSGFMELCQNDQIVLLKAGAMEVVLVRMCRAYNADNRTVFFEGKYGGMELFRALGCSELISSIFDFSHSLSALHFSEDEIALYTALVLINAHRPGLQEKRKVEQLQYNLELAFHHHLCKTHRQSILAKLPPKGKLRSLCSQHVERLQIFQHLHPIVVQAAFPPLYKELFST
Protocol: In the following protocol, HEK-293 cells were transfected with a construct comprising the Gal4 DNA binding domain fused to the ligand binding domain of RORγ (Gal4-RORγ-LBD) in a pcDNA3.1neo plasmid, and also with a reporter construct comprising pGL4.31 Gal4-luciferase (Promega). Control cells were prepared similarly using empty pcDNA3.1neo and pGL4.31 vectors.
Trans-IT reagent (Mirus, 60 μL) at room temperature was added drop wise to OptiMEM (Invitrogen, 1.5 ml). This reagent mixture was mixed by inversion then incubated for 5 to 30 minutes at room temperature. It then was added to a solution of both expression vectors (5 μg each), mixed, and incubated at room temperature for about 20 minutes. HEK-293 cells were harvested from incubation flasks by removing the media, treating with TrypLE Express (Invitrogen), and incubating until the cells detached from the bottom of the flask (approximately 2-5 minutes). 10 Million cells were collected by centrifugation and re-suspended in 10 mL of Dulbecco's Modified Eagle Medium, High Glucose (DMEM, Invitrogen) containing 10% Fetal Bovine Serum and 100 IU each of penicillin and streptomycin. The re-suspended cells and the transfection mixture were added to a T75 flask, mixed and incubated overnight at 37° C. and 5% CO2.
The cells were harvested as described above, counted, and centrifuged to obtain the desired number of cells, then re-suspended in complete growth media at 0.75×10^6 cells/mL. The RORγ antagonist, ursolic acid, was added to the cells at a final concentration of 2 μM. Cells were plated at 20 μL of cell suspension/well (10,000-15,000 cells/well) in white tissue culture treated 384 well plates. Test compounds were dissolved at 10 mM in DMSO then diluted into complete growth medium to 5× the final intended test concentration. These drug stock solutions, 5 μL/well were added to the tissue culture plate. The final DMSO concentration was 0.2%. The plates were briefly centrifuged then incubated overnight at 37° C. and 5% CO2. To conduct the assay, the tissue culture plates were allowed to equilibrate to room temperature and One-Glo luciferase reagent (Promega, 25 μL/well) was added. The plates were briefly centrifuged then incubated at room temperature for 10 minutes. The luciferase intensity was read on an Envision plate reader (Perkin Elmer). RORγ activity was determined relative to controls and plotted as a function of test compound concentration using PRISM (GraphPad) to determine a 50% effective concentration (EC50). The luciferase signal in the absence of ursolic acid or test compound is defined at 100. The Max Response is the upper plateau in the signal as determined by line-fit using a 4-parameter logistic model in PRISM (GraphPad).

RORγ-LBD = target: T2, RORγ-LBD (Homo sapiens, UniProt P51449); test: RORγ-Ligand Binding Domain (LBD) TR-FRET Assay; assay type: biochemical; settings: for EC50: in presence of 2 μM RORγ antagonist ursolic acid, SRC1 coactivator peptide; for TR-FRET Assay Max Response: upper plateau of 4-parameter fit, signal in the absence of ursolic acid or test compound set as 100
T2 construct: made in house; host or cells: SF9 cells, baculovirus expression system; used as diluted lysate
T2 sequence (P51449 269-508 limits assumed): T1 sequence (P51449 269-508 limits assumed)
Protocol: HIS-tagged RORγ-LBD protein was expressed in SF9 cells using a baculovirus expression system. The lysate was diluted in assay buffer (50 mM Tris pH 7.0, 50 mM KCl, 1 mM EDTA, 0.1 mM DTT, 0.01% BSA) to obtain RORγ-LBD final concentration of ˜3 nM in a 384-well assay plate (need to titrate for each batch of protein).
A stock of biotinylated-LXXLL peptide from coactivator SRC1 (Biotin-[…]) was prepared in assay buffer and added to each well (200 nM final concentration). A solution of Europium tagged anti-HIS antibody (0.6 nM final concentration) and APC-conjugated streptavidin (30 nM final concentration) were also added to each well. RORγ antagonist ursolic acid was also included at a final concentration of 2 μM. Compounds were diluted in DMSO and further diluted in assay buffer with a final DMSO concentration at 1%.
The final assay mixture was incubated overnight at 4° C. or 2 hours at room temperature, and the fluorescence signal was measured on an Envision plate reader: (Excitation filter=340 nm; APC emission=665 nm; Europium emission=615 nm; dichroic mirror=D400/D630; delay time=100 μs, integration time=200 μs). 50% Effective concentration (EC50) values for test compounds were calculated from the quotient of the fluorescence signal at 665 nm divided by the fluorescence signal at 615 nm. The quotient of the fluorescence signals in the absence of ursolic acid or test compound is set as 100. Max Response is defined as the upper plateau in the signal as determined by line-fit using a 4-parameter logistic model in PRISM (GraphPad).

Row | SMILES | EC50 (Gal4-RORγ-LBD) | Ga14-RORγ Assay Max Response (Gal4-RORγ-LBD) | EC50 (RORγ-LBD) | TR-FRET Assay Max Response (RORγ-LBD)
1 | C/C(=C\c1ccc2c(c1)N(S(=O)(=O)c1cccc(C(F)(F)F)c1)C[C@H](Oc1noc(=O)[nH]1)C2)c1c(F)cccc1Cl | 100 to 5000 nM | ** (a value in the range of greater than 90 to 150) | 100 to 5000 nM | *** (a value in the range of greater than 150 to 200)
2 | C/C(=C\c1ccc2c(c1)N(S(=O)(=O)c1cccc(C(F)(F)F)c1)C[C@H](Oc1n[nH]c(=O)[nH]1)C2)c1c(F)cccc1Cl | 5000 to 10000 nM | ** (a value in the range of greater than 90 to 150) | < 100 nM | *** (a value in the range of greater than 150 to 200)
3 | C/C(=C\c1ccc2c(c1)N(S(=O)(=O)c1cccc(C(F)(F)F)c1)[C@H](C)[C@H](Cn1ccnc1)C2)c1c(F)cccc1Cl | 100 to 5000 nM | ** (a value in the range of greater than 90 to 150) | < 100 nM | *** (a value in the range of greater than 150 to 200)
4 | C/C(=C\c1ccc2c(c1)N(S(=O)(=O)c1cccc(C(F)(F)F)c1)C[C@H](CCc1noc(=O)[nH]1)O2)c1c(F)cccc1Cl | 100 to 5000 nM | *** (a value in the range of greater than 150 to 200) | < 100 nM | *** (a value in the range of greater than 150 to 200)
5 | C/C(=C\c1ccc2c(c1)N(S(=O)(=O)c1cccc(C(F)(F)F)c1)C[C@H](CCn1ccnc1)O2)c1c(F)cccc1Cl | 100 to 5000 nM | ** (a value in the range of greater than 90 to 150) | < 100 nM | *** (a value in the range of greater than 150 to 200)
6 | C/C(=C\c1ccc2c(c1)N(S(=O)(=O)c1cccc(C(F)(F)F)c1)C[C@H](CCCn1ccnc1)O2)c1c(F)cccc1Cl | 100 to 5000 nM | ** (a value in the range of greater than 90 to 150) | < 100 nM | *** (a value in the range of greater than 150 to 200)
7 | C/C(=C\c1ccc2c(c1)N(S(=O)(=O)c1cccc(C(F)(F)F)c1)C[C@H](CCn1ccnn1)O2)c1c(F)cccc1Cl | 100 to 5000 nM | ** (a value in the range of greater than 90 to 150) | < 100 nM | *** (a value in the range of greater than 150 to 200)
8 | C/C(=C\c1ccc2c(c1)N(S(=O)(=O)c1cccc(C(F)(F)F)c1)C[C@H](CCn1cc(C(=O)O)nn1)O2)c1c(F)cccc1Cl | 100 to 5000 nM | *** (a value in the range of greater than 150 to 200) | < 100 nM | *** (a value in the range of greater than 150 to 200)
9 | O=c1[nH]nc(CC[C@H]2CN(S(=O)(=O)c3cccc(C(F)(F)F)c3)c3cc(/C=C/c4c(Cl)cccc4C(F)(F)F)ccc3O2)o1 | 100 to 5000 nM | ** (a value in the range of greater than 90 to 150) | < 100 nM | *** (a value in the range of greater than 150 to 200)
10 | C[C@@H]1[C@H](n2cc[nH]c2=O)Cc2ccc(/C=C/c3c(F)cccc3C(F)(F)F)cc2N1S(=O)(=O)c1cccc(C(F)(F)F)c1 | 100 to 5000 nM | ** (a value in the range of greater than 90 to 150) | 100 to 5000 nM | *** (a value in the range of greater than 150 to 200)
11 | C/C(=C\c1ccc2c(c1)N(S(=O)(=O)c1cccc(C(F)(F)F)c1)C[C@H](Cc1n[nH]c(=O)o1)O2)c1c(F)cccc1Cl | 100 to 5000 nM | * (a value in the range of 40 to 90) | < 100 nM | *** (a value in the range of greater than 150 to 200)
12 | O=c1[nH]nc(CC[C@H]2CN(S(=O)(=O)c3cccc(C(F)(F)F)c3)c3cc(/C=C/c4ncccc4C(F)(F)F)ccc3O2)o1 | 100 to 5000 nM | ** (a value in the range of greater than 90 to 150) | < 100 nM | *** (a value in the range of greater than 150 to 200)
13 | COc1cc(S(=O)(=O)N2C[C@H](CCc3n[nH]c(=O)o3)Oc3ccc(/C=C(\C)c4c(F)cccc4Cl)cc32)ccc1F | 100 to 5000 nM | ** (a value in the range of greater than 90 to 150) | < 100 nM | ** (a value in the range of greater than 90 to 150)
14 | CCOc1nn(CC)cc1S(=O)(=O)N1C[C@H](CCc2n[nH]c(=O)o2)Oc2ccc(/C=C(\C)c3c(F)cccc3Cl)cc21 | 100 to 5000 nM | *** (a value in the range of greater than 150 to 200) | < 100 nM | *** (a value in the range of greater than 150 to 200)
15 | C/C(=C\c1ccc2c(c1)N(S(=O)(=O)c1cccc(C(F)(F)F)c1)C[C@H](CCOc1noc(=O)[nH]1)O2)c1c(F)cccc1Cl | 100 to 5000 nM | ** (a value in the range of greater than 90 to 150) | < 100 nM | *** (a value in the range of greater than 150 to 200)
16 | C/C(=C\c1ccc2c(c1)N(S(=O)(=O)c1cccc(OC(F)F)c1)C[C@H](CCOc1noc(=O)[nH]1)O2)c1c(F)cccc1Cl | 100 to 5000 nM | ** (a value in the range of greater than 90 to 150) | < 100 nM | *** (a value in the range of greater than 150 to 200)
17 | CCn1cc(S(=O)(=O)N2C[C@H](CCOc3noc(=O)[nH]3)Oc3ccc(/C=C(\C)c4c(F)cccc4Cl)cc32)c(Cl)n1 | 100 to 5000 nM | *** (a value in the range of greater than 150 to 200) | < 100 nM | *** (a value in the range of greater than 150 to 200)
